Laboratory results reported in patent US11351151B2, “Compound having anticancer activity and preparation method and application” (3D Medicines (Beijing) Co., Ltd., priority 2016, dated 2022).
“And” between values parts separate entries of the source, which are not always exact repeats. Equal values may be shown once. “Also recorded” adds a separate entry of the source.

Tests used:
[1] = test system: 54 commercial tumor cell lines; assay: Cell proliferation assay (Alamar Blue), summary over the panel; format: cell-based; conditions: in almost all tumor cell lines
Procedure: 1. Instruments and Materials • Thermo 311 CO2 incubator; Haier biosafety cabinet; Molecular Devices microplate reader; Xiangyi brand L530 desktop low speed centrifuge; Olympus IX51 inverted fluorescence microscope, DMEM, RPMI 1640, MEM, DMEM/F12 1:1 medium, Fetal bovine serum, 0.25% trypsin solution, phosphate buffer (Thermo Fisher Shanghai Co., Ltd.); sigma dimethyl sulfoxide (DMSO), resazurin; 54 commercial tumor cell lines (including 26 liver cancer cell lines). Experimental drugs: compounds 1-12 and active drug Linifanib; chemotherapeutic drug Doxorubicin (HY-15142; Shanghai Qianyuan Biomedical Technology Co., Ltd.).
2. Experimental Methods • 2.1 Cultivation of different cell lines • 54 cell lines were cultured in a culture medium containing fetal bovine serum and placed in a 5% CO 2 incubator at 37° C. for incubation. The cells were all grown in an adherent state, and the growth was observed under an inverted microscope, and subculture was performed when the cell confluence rate reached 80%-90%. The proportion and quantity of passage were determined by experimental needs. The ratio of subculture of this cell line was generally 1:2^˜1:3. • 2.2 inhibition effect on the proliferation of different tumor cell lines • Cell test: 54 cell lines in logarithmic growth phase were inoculated in 96-well culture plates at 500^˜1×10^4/well (the optimal seeding density of each cell line was determined in pre-experiment), After incubating at 37° C. for 4 h in a 5% CO2 humidification incubator, added 10 μL of compounds 1-12 or Linifanib to each well, and tested 9 drug concentration gradients for each compound (diluted from the highest concentration of the test by 3.16 times). The solubility of each compound was different at a starting concentration of 30 or 100 μM, respectively. The QC reference compound Doxorubicin was added simultaneously to each cell line test, and the final drug concentrations were 10, 3.16, 1, 0.31, 0.1, 0.03, 0.01, 0.003, and 0.001 μM, respectively. In addition, a positive control group (100% inhibition) and a negative control group (0% inhibition) were set at the same time. The drug group was repeated for 2 wells per concentration, and the positive control group and the negative control group were repeated for 6 wells. After the culture was continued for 6 days in the incubator, AlamarBlue test operation was followed; • AlamarBlue test procedure: Incubated with 10 μL of AlamarBlue reagent per well for 1-4 h, shook for 1-2 min, MD microplate reader EX: 560 nm, EM: 590 nm wavelength to measure fluorescence, recorded the results, calculated the cell inhibition rate of the compound of the invention. […]

HUH7 = assay: Cell proliferation assay (Alamar Blue); format: cell-based; conditions: Homo sapiens, Huh-7, 144 h; HUH7 liver cancer cell line; 6 days
Method in brief: (§1)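 Growth inhibition is measured after six days of drug exposure using resazurin (AlamarBlue) fluorescence at 560/590 nm. Dose–response curves, typically four-parameter, yield IC50 values.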

NCl-H716 = assay: Cell proliferation assay (Alamar Blue); format: cell-based; conditions: 144 h; NCl-H716 tumor cell line; 6 days
Method in brief: as §1

NCl-H2170 = assay: Cell proliferation assay (Alamar Blue); format: cell-based; conditions: 144 h; NCl-H2170 tumor cell line; 6 days
Method in brief: as §1

SK-HEP-1 = assay: Cell proliferation assay (Alamar Blue); format: cell-based; conditions: Homo sapiens, SK-HEP1, 144 h; SK-HEP-1 liver cancer cell line; 6 days
Method in brief: as §1

SNU354 = assay: Cell proliferation assay (Alamar Blue); format: cell-based; conditions: Homo sapiens, SNU-354, 144 h; SNU354 liver cancer cell line; 6 days
Method in brief: as §1

HUH6 = assay: Cell proliferation assay (Alamar Blue); format: cell-based; conditions: Homo sapiens, HuH-6, 144 h; HUH6 liver cancer cell line; 6 days
Method in brief: as §1

HEPG2 = assay: Cell proliferation assay (Alamar Blue); format: cell-based; conditions: Homo sapiens, 144 h; HEPG2 liver cancer cell line; 6 days
Method in brief: as §1

NCl-H1703 = assay: Cell proliferation assay (Alamar Blue); format: cell-based; conditions: 144 h; NCl-H1703 (lung cancer cells); 6 days
Method in brief: as §1

[2] = Plasma incubation stability study; format: in vitro ADME, SD rat; conditions: for Residual intermediate: rat plasma, 37° C., 2 μg/mL added, listed as intermediate
Procedure: The purpose of this example was to investigate the stability of the precursor Linifanib-C12-AA5 (compound 8) and the intermediate Linifanib-C12-Asp (compound 12) in plasma, liver homogenate and spleen homogenate (precursor Linifanib-C12-AA5 metabolizes into the intermediates Linifanib-C12-Asp and Linifanib; the intermediate Linifanib-C12-Asp is further metabolized to form Linifanib), and the metabolites were analyzed quantitatively, and the stability of the incubation system was verified with positive drugs, providing references for compound drug evaluation.
• Instrument: AP13000 LC/MS, ABI • Materials: Male SD rats (200-250 g), Beijing Vital River • Test samples: positive drugs and their metabolites M1 and M2, Linifanib-C12-AA5 and its metabolites Linifanib-C12-ASP and Linifanib. 2. Stability study of Linifanib-C12-AA5 and Linifanib-C12-Asp • 2.1 Linifanib-C12-AA5 and Linifanib-C12-Asp plasma incubation stability study protocol Test animal • Type: SD rat; Quantity: 2 • Sex: male; weight: 200-250 g;
Experimental Procedure • 1. Animal blood was collected, blood samples were placed in EDTA anticoagulation tubes, centrifuged at 3000 g for 15 min at 4° C., plasma was separated, and 2 blood samples were mixed in equal volumes; • 2. Weighed and dissolved a certain amount of Linifanib-C12-AA5/Linifanib-C12-Asp in DMSO:MeOH (2:8), prepared 200 μM mother liquor by purity, and added the compound to the plasma to a final concentration of 2 μg/mL. The organic ratio in the system was not more than 0.5%. • 3. Incubated in a 37° C. water bath and set the sampling points to 0, 0.5, 1, 2, 4, 6, and 8 h. At each sampling point, 100 μL of each sample was added to 300 μL of acetonitrile (with internal standard) for precipitation, centrifuged at 12,000 rpm for 5 min, and 200 μL of supernatant was taken for analysis by LC-MS/MS. • 4. Configured the standard curve to quantify Linifanib, Linifanib-C12-Asp and residual Linifanib-C12-AA5. • 2.2 Linifanib-C12-AA5 and Linifanib-C12-Asp liver/spleen homogenate incubation stability study protocol Test animal • Type: SD rat; Quantity: 2 • Sex: Male; Weight: 200-250 g

Structure (SMILES)	IC50 values compared with Linifanib [1]	IC50 (HUH7)	IC50 (NCl-H716)	IC50 (NCl-H2170)	IC50 (SK-HEP-1)	IC50 (SNU354)	IC50 (HUH6)	IC50 (HEPG2)	IC50 (NCl-H1703)	level of Linifanib produced in plasma ([2]; rat plasma incubation up to 8 h)	Residual intermediate ([2]; 0 h)	Residual intermediate ([2]; 0.5 h)	Residual intermediate ([2]; 1 h)	Residual intermediate ([2]; 2 h)	Residual intermediate ([2]; 4 h)	Residual intermediate ([2]; 6 h)	Residual intermediate ([2]; 8 h)	stability in plasma ([2]; rat plasma incubation up to 8 h, listed as Linifanib-C12-Asp)
Cc1ccc(F)c(NC(=O)Nc2ccc(-c3cccc4c3c(N)nn4C(=O)CCCCCNC(=O)C[C@H](N)C(=O)N[C@@H](CCC(=O)O)C(=O)O)cc2)c1 [Compound 4]	–	60 µM	43.8 µM	84 µM	64 µM	78.8 µM	53.8 µM	19 µM	1.59 µM	–	–	–	–	–	–	–	–	–
Cc1ccc(F)c(NC(=O)Nc2ccc(-c3cccc4c3c(N)nn4C(=O)CCCCCNC(=O)C[C@H](N)C(=O)N[C@@H](CCC(=O)N[C@@H](CCC(=O)N[C@@H](CCC(=O)N[C@@H](CCC(=O)O)C(=O)O)C(=O)O)C(=O)O)C(=O)O)cc2)c1 [Compound 5]	–	77.9 µM	66.7 µM	> 100 µM	85.1 µM	> 100 µM	72.2 µM	30.8 µM	3.43 µM	–	–	–	–	–	–	–	–	–
Cc1ccc(F)c(NC(=O)Nc2ccc(-c3cccc4c3c(N)nn4C(=O)CCCCCNC(=O)C[C@H](N)C(=O)N[C@@H](CCC(=O)N[C@@H](CCC(=O)N[C@@H](CCC(=O)N[C@@H](CCC(=O)N[C@@H](CCC(=O)N[C@@H](CCC(=O)N[C@@H](CCC(=O)N[C@@H](CCC(=O)N[C@@H](CCC(=O)O)C(=O)O)C(=O)O)C(=O)O)C(=O)O)C(=O)O)C(=O)O)C(=O)O)C(=O)O)C(=O)O)cc2)c1 [Compound 6]	–	92.1 µM	92.1 µM	> 100 µM	> 100 µM	> 100 µM	88.7 µM	43.4 µM	7.16 µM	–	–	–	–	–	–	–	–	–
Cc1ccc(F)c(NC(=O)Nc2ccc(-c3cccc4c3c(N)nn4C(=O)CCCCCCCCCCCNC(=O)C[C@H](N)C(=O)N[C@@H](CCC(=O)N[C@@H](CCC(=O)N[C@@H](CCC(=O)N[C@@H](CCC(=O)N[C@@H](CCC(=O)N[C@@H](CCC(=O)N[C@@H](CCC(=O)N[C@@H](CCC(=O)N[C@@H](CCC(=O)O)C(=O)O)C(=O)O)C(=O)O)C(=O)O)C(=O)O)C(=O)O)C(=O)O)C(=O)O)C(=O)O)cc2)c1 [Compound 9]	–	30.3 µM	43.1 µM	84 µM	> 100 µM	67.3 µM	50.3 µM	11 µM	0.33 µM	–	–	–	–	–	–	–	–	–
Cc1ccc(F)c(NC(=O)Nc2ccc(-c3cccc4c3c(N)nn4C(=O)CCCCCCCCCCCNC(=O)C[C@H](N)C(=O)O)cc2)c1 [Compound 12]	–	> 30 µM	> 30 µM	> 30 µM	> 30 µM	> 30 µM	10.6 µM	> 30 µM	0.05 µM	close to zero	1900 ng/mL and 2180 ng/mL	2100 ng/mL and 2290 ng/mL	2180 ng/mL and 2290 ng/mL	2160 ng/mL and 2110 ng/mL	2210 ng/mL and 2270 ng/mL	2070 ng/mL and 1880 ng/mL	1940 ng/mL and 2060 ng/mL	stably incubated in plasma; also recorded: stable in plasma

The remaining molecules from weak to strong by IC50 (HUH7), led by results:

IC50 values compared with Linifanib [1]	IC50 (HUH7)	IC50 (NCl-H716)	IC50 (NCl-H2170)	IC50 (SK-HEP-1)	IC50 (SNU354)	IC50 (HUH6)	IC50 (HEPG2)	IC50 (NCl-H1703)	level of Linifanib produced in plasma ([2]; rat plasma incubation up to 8 h)	Residual intermediate ([2]; 0 h)	Residual intermediate ([2]; 0.5 h)	Residual intermediate ([2]; 1 h)	Residual intermediate ([2]; 2 h)	Residual intermediate ([2]; 4 h)	Residual intermediate ([2]; 6 h)	Residual intermediate ([2]; 8 h)	Structure (SMILES)	stability in plasma ([2]; rat plasma incubation up to 8 h, listed as Linifanib-C12-Asp)
–	42.2 µM	82.2 µM	72.8 µM	55.4 µM	63.3 µM	46.4 µM	11.1 µM	0.89 µM	–	–	–	–	–	–	–	–	Cc1ccc(F)c(NC(=O)Nc2ccc(-c3cccc4c3c(N)nn4C(=O)CCCCCNC(=O)C[C@H](N)C(=O)O)cc2)c1 [Compound 11]	–
–	22.1 µM	8.45 µM	22.5 µM	29.2 µM	30.2 µM	> 100 µM	5.83 µM	0.18 µM	–	–	–	–	–	–	–	–	Cc1ccc(F)c(NC(=O)Nc2ccc(-c3cccc4c3c(N)nn4C(=O)CCCCCCCCCCCNC(=O)C[C@H](N)C(=O)N[C@@H](CCC(=O)O)C(=O)O)cc2)c1 [Compound 7]	–
close to those of Linifanib	6.69 µM	6.09 µM	7.89 µM	15.8 µM	16.8 µM	1.55 µM	1.73 µM	0.15 µM	–	–	–	–	–	–	–	–	Cc1ccc(F)c(NC(=O)Nc2ccc(-c3cccc4c3c(N)nn4C(=O)C[C@H](N)C(=O)N[C@@H](CCC(=O)N[C@@H](CCC(=O)N[C@@H](CCC(=O)N[C@@H](CCC(=O)N[C@@H](CCC(=O)N[C@@H](CCC(=O)N[C@@H](CCC(=O)N[C@@H](CCC(=O)N[C@@H](CCC(=O)O)C(=O)O)C(=O)O)C(=O)O)C(=O)O)C(=O)O)C(=O)O)C(=O)O)C(=O)O)C(=O)O)cc2)c1 [Compound 3]	–
close to those of Linifanib	4.32 µM	2.84 µM	3.46 µM	9.25 µM	7.01 µM	0.82 µM	0.64 µM	0.063 µM	–	–	–	–	–	–	–	–	Cc1ccc(F)c(NC(=O)Nc2ccc(-c3cccc4c3c(N)nn4C(=O)C[C@H](N)C(=O)N[C@@H](CCC(=O)N[C@@H](CCC(=O)N[C@@H](CCC(=O)N[C@@H](CCC(=O)O)C(=O)O)C(=O)O)C(=O)O)C(=O)O)cc2)c1 [Compound 2]	–
close to those of Linifanib	3.22 µM	1.82 µM	0.97 µM	4.59 µM	3.91 µM	0.13 µM	0.45 µM	0.04 µM	–	–	–	–	–	–	–	–	Cc1ccc(F)c(NC(=O)Nc2ccc(-c3cccc4c3c(N)nn4C(=O)C[C@H](N)C(=O)N[C@@H](CCC(=O)O)C(=O)O)cc2)c1 [Compound 1]	–
